# Experimental data as given in patent US20160058806A1, “METHOD FOR STIMULATING INTESTINAL BARRIER INTEGRITY AFTER NON-NATURAL BIRTH” (N.V. Nutricia, priority 2005, published 2016).
# Experiments:
# [1] = tested on: intestinal epithelial cell lines T84; test: Effect of LC-PUFA on IL-4 mediated barrier disruption of T84 monolayers (TER and permeability); format: cell-based; details: IL-4 2 ng/ml; fatty acid 100 μM, mucosal compartment; 48 hr pre-incubation + 48 hr co-incubation
# Procedure: (§1) Monolayers (MC) of intestinal epithelial cell lines T84 were incubated in the luminal compartment with different 100 μM polyunsaturated fatty acids ARA (arachidonic acid; 5,8,11,14-eicosatetraenoic acid), DHA (cis-4,7,10,13,16,19 docosahexaenoic acid), EPA (eicosapentaenoic acid) or control palmiiic (C 16:0) acid (Palm) (Sigma, St. Louis, USA) for 0, 24, 48 and 72 hr. The epithelial barrier function was determined by measuring the transepithelial resistance (TER, Ωcm^2) by epithelial volt-ohm meter (EVOM; World Precision Instruments, Germany) and permeability for 4 kD FITC dextran (paracellular permeability marker, Sigma, USA).
# Monolayers (MC) of intestinal epithelial cell lines T84 were incubated in the presence of IL-4 (2 ng/ml, scrosal compartment, Sigma, USA) with or without polyunsaturated fatty acids ARA, DHA, GLA, EPA, or control palmitic acid (10 μM or 100 μM, mucosal compartment, Sigma, St. Louis, USA). Cells were pre-incubated with ARA, DHA, EPA, or palmitic acid for 48 hr prior to the IL-4 incubation. The co-incubation of PUFA's and palmitic acid with IL-4 was continued for another 48 hr, while culture medium and additives were changed every 24 hr. The epithelial barrier function was determined by measuring the transepithelial resistance (TER) and permeability as described in example 2.
# [2] = tested on: intestinal epithelial cell lines T84; test: Effect of LC-PUFA on spontaneous barrier integrity of T84 monolayers (TER and 4 kD FITC dextran flux); format: cell-based; details: result in words
# Procedure: as §1
SMILES,IL-4 Flux [1],IL-4 TER [1],effect on basal barrier integrity resistance and flux [2]
"CCCCCC=CCC=CCC=CCC=CCCCC(=O)O [ARA, 5,8,11,14-eicosatetraenoic acid]",218,636,–
"CC/C=C\C/C=C\C/C=C\C/C=C\C/C=C\CCCC(=O)O [EPA, eicosapentaenoic acid]",228,539,–
"CCCCC/C=C\C/C=C\C/C=C\CCCCC(=O)O [GLA, gamma-linolenic acid]",–,–,positive effect
"CCCCCCCCCCCCCCCC(=O)O [Palmitic acid, palmitic acid, reference compound]",777,321,–
